Laboratory results as given in patent US11286268B1, “EIF4E-inhibiting compounds and methods” (EFFECTOR THERAPEUTICS, INC., priority 2019, dated 2022).
Where two headings read alike, the source gives them in different places.

Biological target: recombinant eIF4E (Homo sapiens (Human), UniProt P06730)
Assay: Fluorescence polarization competition assay for eIF4E binding potency
How it was run: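 IC50 values reflect 50% displacement of 20 nM EDA-m7GDP-ATTO-550 from 75 nM eIF4E, measured by fluorescence polarization after 30 min at room temperature. Buffer: 20 mM Tris pH 7.5, 100 mM NaCl, 1 mM DTT, 0.02% Tween-20; 1% DMSO.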

[1] = inhibition of eIF4E/EDA-m7GDP-ATTO-550 binding, calculated IC50 values, Table 4B, read-out: IC50
[2] = fluorescence polarization competition, 75 nM recombinant eIF4E, 20 nM EDA-m7GDP-ATTO-550, IC50 class, read-out: elF4E FP
[3] = inhibition of eIF4E/EDA-m7GDP-ATTO-550 binding by 50%, Table 4B calculated values, read-out: IC50

recombinant eIF4E, sequence (P06730 whole entry): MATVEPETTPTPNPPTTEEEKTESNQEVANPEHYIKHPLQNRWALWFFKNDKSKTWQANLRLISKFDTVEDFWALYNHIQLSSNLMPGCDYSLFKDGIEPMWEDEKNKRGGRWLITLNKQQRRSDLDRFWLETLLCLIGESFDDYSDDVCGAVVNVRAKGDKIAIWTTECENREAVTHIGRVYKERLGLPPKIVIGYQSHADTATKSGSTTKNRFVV

Compound | IC50 [1] [nM] | IC50 [2] [nM] | IC50 [3] [nM]
Cc1nc2cnc(N3CCC(N(CC(F)F)C4COC4)CC3)c(C#N)c2c(=O)n1CC#Cc1ccc(Cl)cc1-c1ccnc2c(C(=O)NS(=O)(=O)CC(F)F)csc12 [compound 1591] | 36.2 |  | 
Cc1nc2cc(C(F)F)c(OC(F)F)c(C#N)c2c(=O)n1CCOc1ccc(Cl)cc1-c1ccnc2c(C(=O)O)csc12 [compound 548] |  | < 50 | 47.2
Cc1nc2cnc(N(C)C3CCN(CC(F)(F)F)CC3)c(C#N)c2c(=O)n1CC#Cc1ccc(Cl)cc1-c1ccnc2c(C(=O)NS(=O)(=O)CCC#N)csc12 [compound 1671] | 4.14 |  | 
COC(=O)c1csc2c(-c3cc(Cl)ccc3OCCn3c(C)nc4cc(C(F)(F)F)c(N5CCN(C)CC5)c(C#N)c4c3=O)cc(C)nc12 [compound 1391] | 37.6 |  | 
Cc1nc2cnc(N(C)C3CCN(C4(C(F)(F)CO)CC4)CC3)c(C#N)c2c(=O)n1CC#Cc1ccc(Cl)cc1-c1ccnc2c(C(=O)O)csc12 [compound 1131] |  | < 50 | 14.7
Cc1cc(-c2c(Cl)cc3nc(C)n(CCOc4ccc(Cl)cc4-c4cc(C)nc5c(C(=O)O)csc45)c(=O)c3c2C#N)ccn1 [compound 393] |  | < 50 | 11.8
Cc1nc2cnc(N(C)C3CCN(C4COC4)CC3)c(C#N)c2c(=O)n1CCOc1ccc(Cl)cc1-c1ccnc2c(C(=O)O)csc12 [compound 1320] | 27.7 |  | 
COC(=O)c1sc2c(-c3cc(Cl)ccc3OCCn3c(C)nc4cc(C(F)(F)F)cc(C#N)c4c3=O)ccnc2c1O [compound 2037] | > 1000 |  | 
CCc1ncc2nc(C)n(CCOc3ccc(Cl)cc3-c3ccnc4c(C(=O)O)csc34)c(=O)c2c1C#N [compound 813] |  | < 50 | 4.04
Cc1sc2c(-c3cc(Cl)ccc3C#CCn3c(C)nc4cc(C(F)(F)F)c(CN5CCN(C)CC5)c(C#N)c4c3=O)ccnc2c1C(=O)O [compound 643] |  | < 50 | 0.832
Cc1cc(-c2cc(Cl)ccc2OCCn2c(C)nc3c(C)ncc(C#N)c3c2=O)c2scc(C(O)C(F)(F)F)c2n1 (stereo not drawn) [compound 733] |  | > 1000 | 1730
COC(=O)c1sc2cc(-c3cc(Cl)ccc3OCCn3c(C)nc4cc(C(F)(F)F)cc(C#N)c4c3=O)cnc2c1O [compound 664] |  | 50 to 1000 | 153
Cc1nc2cnc(N3CCN(C(C)C(F)(F)F)CC3)c(C#N)c2c(=O)n1CCOc1ccc(Cl)cc1-c1ccnc2c(C(=O)O)csc12 (stereo not drawn) [compound 1315] | 13.1 |  | 
Cc1cc(-c2cc(Cl)ccc2OCCn2c(C)nc3cc(C(F)(F)F)c(N4CCSCC4)c(C#N)c3c2=O)c2scc(C(=O)O)c2n1 [compound 992] |  | 50 to 1000 | 56.1
Cc1cc(-c2cc(Cl)ccc2OCCn2c(C)nc3cc(C(F)(F)F)c(N4CCN(CC(F)F)CC4)c(C#N)c3c2=O)c2scc(C(=O)O)c2n1 [compound 428] |  | < 50 | 7.45
Cc1nc2cnc(N(C)C3CCOCC3)c(C#N)c2c(=O)n1CC#Cc1ccc(Cl)cc1-c1ccnc2c(C(=O)O)csc12 [compound 1528] | 6.31 |  | 
Cc1cc(-c2cc(Cl)ccc2OCCn2c(C)nc3cc(C(F)(F)F)c(N4CCN(C)CC4)nc3c2=O)c2scc(C(=O)O)c2n1 [compound 676] |  | < 50 | 6.22
Cc1nc2cnc(N(C)C3CCN(C4(C(F)F)CC4)CC3)c(C#N)c2c(=O)n1CC#Cc1ccc(Cl)cc1-c1ccnc2c(C(=O)O)csc12 [compound 1522] | 17.7 |  | 
Cc1cc(-c2cc(Cl)ccc2OCCn2c(C)nc3cc(N(C)C)c(-c4ccccc4)c(C#N)c3c2=O)c2scc(C(=O)O)c2n1 [compound 1040] |  | < 50 | 30
CCN(c1ncc2nc(C)n(CC#Cc3ccc(Cl)cc3-c3ccnc4c(C(=O)NS(=O)(=O)c5ccncc5)csc34)c(=O)c2c1C#N)C1CCN(CC(F)(F)C(F)F)CC1 [compound 1708] | 16.2 |  | 
Cc1ccc(-c2cc(Cl)ccc2OCCn2c(C)nc3cc(C(F)(F)F)c(CN4CCN(C)CC4)c(C#N)c3c2=O)c2scc(C(=O)O)c12 [compound 719] |  | < 50 | 28.5
